Laboratory results published in ChEMBL document CHEMBL1201862, “PubChem BioAssay data set” (2004).
Activity calls are given as the source filed them.

Key:
Bcl-2-like protein 1 = Bcl-2-like protein 1 (Homo sapiens, UniProt Q07817); assay: BCL-XL inhibitors, dose response, selectivity assay for MCL1 inhibitor project, biochemical, fluorescence polarization, 1536-well (AID 2218)
[1] = molecular target: Induced myeloid leukemia cell differentiation protein Mcl-1 (Homo sapiens, UniProt Q07820); assay: MCL1-BIM BH3 interaction inhibitors, dose response, biochemical, fluorescence polarization, BIM-BH3 peptide, 1536-well (AID 2217)
[2] = molecular target: T1, Carboxy-terminal domain RNA polymerase II polypeptide A small phosphatase 1 (Homo sapiens, UniProt Q9GZU7); assay: inhibitors of CTDSP1, concentration-response testing, biochemical assay, absorbance-based, actives from ultra-high-throughput screening (AID 540297); assay type: functional
T1 sequence (Q9GZU7 whole entry): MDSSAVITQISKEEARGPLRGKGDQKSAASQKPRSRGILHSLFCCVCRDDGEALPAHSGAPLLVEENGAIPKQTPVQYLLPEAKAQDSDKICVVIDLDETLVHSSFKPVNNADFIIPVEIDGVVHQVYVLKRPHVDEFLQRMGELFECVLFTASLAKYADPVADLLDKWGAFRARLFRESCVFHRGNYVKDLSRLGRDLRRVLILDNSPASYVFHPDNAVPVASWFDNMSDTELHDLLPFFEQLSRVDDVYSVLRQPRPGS

Estrogen receptor beta [3] = molecular target: T2, Estrogen receptor beta (Homo sapiens, UniProt Q92731);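 further: recombinant ER-beta bound to coactivator SRC1 peptide in presence of estradiol agonist; inhibitors block coactivator peptide binding and lower the FRET signal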
Estrogen receptor beta [4] = molecular target: T2, Estrogen receptor beta; assay: ERβ–SRC-3 coactivator interaction inhibitors, confirmation, orthogonal assay, biochemical, ELISA, streptavidin-HRP readout (AID 1060)
Estrogen receptor = molecular target: T3, Estrogen receptor (Homo sapiens, UniProt P03372);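 further: potency for inhibiting coactivator peptide recruitment to the receptor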
T3 sequence (P03372 whole entry): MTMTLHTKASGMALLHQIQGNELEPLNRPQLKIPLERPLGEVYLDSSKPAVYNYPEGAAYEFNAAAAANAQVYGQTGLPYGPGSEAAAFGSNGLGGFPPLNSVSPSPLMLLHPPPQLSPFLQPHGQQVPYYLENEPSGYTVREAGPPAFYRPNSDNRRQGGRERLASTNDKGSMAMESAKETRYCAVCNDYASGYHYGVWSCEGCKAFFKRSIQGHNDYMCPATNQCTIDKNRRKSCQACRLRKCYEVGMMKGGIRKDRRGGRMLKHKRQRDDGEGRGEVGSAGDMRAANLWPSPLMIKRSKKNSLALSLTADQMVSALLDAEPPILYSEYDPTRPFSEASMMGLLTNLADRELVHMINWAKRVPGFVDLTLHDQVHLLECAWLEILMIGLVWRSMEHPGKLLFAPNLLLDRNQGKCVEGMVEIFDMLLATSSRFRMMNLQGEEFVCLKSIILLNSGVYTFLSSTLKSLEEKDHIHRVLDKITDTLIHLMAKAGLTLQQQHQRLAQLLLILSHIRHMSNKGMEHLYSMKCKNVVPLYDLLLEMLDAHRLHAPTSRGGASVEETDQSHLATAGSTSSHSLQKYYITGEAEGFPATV

[5] = Luminescence Cell-Based Dose Confirmation HTS to Identify Activators of 5'UTR Stem-Loop Driven Alpha-Synuclein mRNA Translation in H4 Neuroglioblastoma Cells. [Related pubchem assays: 1829 (Project Summary), 1814 (Primary HTS)]; assay type: functional
[6] = Luminescence Cell-Based Dose Response HTS to Identify Activators of Luciferase Translation or Activity in H4 […] Cells. [Related pubchem assays: 1829 (Project Summary), 1814 (Primary HTS)]; assay type: functional
H4 = assay: Luminescence Cell-Based Dose Response HTS to Identify Activators of 5'UTR Stem-Loop Driven Prion Protein mRNA Translation in H4 Neuroglioblastoma Cells. [Related pubchem assays: 1829 (Project Summary), 1814 (Primary HTS)]; assay type: functional; conditions: Homo sapiens
[7] = inhibitors of Vif binding to APOBEC3G peptide, primary screen, biochemical, TR-FRET, GST-Vif 1-94, biotin-A3G peptide, dose response retest (AID 1117319); assay type: functional;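 further: TR-FRET signal of purified GST-Vif binding a biotinylated A3G peptide; inhibitors lower the FRET signal by blocking Vif and A3G binding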
[8] = molecular target: T4, Tyrosine-protein phosphatase non-receptor type 7 (Homo sapiens, UniProt P35236); assay: inhibitors of human HePTP phosphatase, […], biochemical, absorbance, leukemia target (AID 521); assay type: functional
T4 sequence (P35236 whole entry): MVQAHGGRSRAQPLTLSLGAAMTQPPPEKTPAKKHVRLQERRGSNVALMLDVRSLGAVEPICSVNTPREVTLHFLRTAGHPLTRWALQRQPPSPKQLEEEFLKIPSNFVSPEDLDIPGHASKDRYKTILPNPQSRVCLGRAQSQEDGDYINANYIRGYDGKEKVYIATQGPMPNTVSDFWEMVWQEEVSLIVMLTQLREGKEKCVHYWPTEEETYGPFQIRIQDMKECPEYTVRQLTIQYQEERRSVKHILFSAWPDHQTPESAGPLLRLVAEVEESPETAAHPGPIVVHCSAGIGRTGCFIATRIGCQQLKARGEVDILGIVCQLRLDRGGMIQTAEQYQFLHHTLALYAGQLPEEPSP

[9] = Luminescence Cell-Based Dose Confirmation to Identify Activators of 5'UTR Stem-Loop Driven Alpha-Synuclein mRNA Translation in H4 Neuroglioblastoma Cells. [Related pubchem assays: 1829 (Project Summary), 1814 (Primary HTS)]; assay type: functional
[10] = Luminescence Cell-Based Dose Response to Identify Activators of Luciferase Translation or Activity in H4-C Neuroglioblastoma Cells. [Related pubchem assays: 1829 (Project Summary), 1814 (Primary HTS)]; assay type: functional
[11] = Luminescence Cell-Based Dose Response to Identify Activators of 5'UTR Stem-Loop Driven Prion Protein mRNA Translation in H4-C Neuroglioblastoma Cells. [Related pubchem assays: 1829 (Project Summary), 1814 (Primary HTS)]; assay type: functional
[12] = Concentration-dependent survival of SW480 colon cancer line, luminescence detection with CellTiter-Glo, half-maximal inhibitory concentration (AID 1117338); assay type: functional
[13] = cytotoxicity toward HT-29 cells – cell-based, CellTiter-Glo luminescence, IC50, dose response (AID 1117330); assay type: functional
[14] = RKO cell viability reduction, dose response, CellTiter-Glo luminescence (AID 1117322); assay type: functional
[15] = HeLa 4N DNA content increase, dose response, cell-based, IC50 (AID 1117351); assay type: functional
[16] = CellTiter-Glo luminescent dose response of DLD-1 viability loss (AID 1117352); assay type: functional
[17] = SNU-C1 cell viability reduction, dose response, CellTiter-Glo luminescence (AID 1117323); assay type: functional, cell-based
[18] = cytotoxicity toward Colo320 cells – cell-based, CellTiter-Glo luminescence, IC50, dose response (AID 1117334); assay type: functional; conditions: COLO 320
[19] = HeLa 2N DNA content increase, dose response, cell-based, IC50 (AID 1117349); assay type: functional

T2 sequence (Q92731 whole entry): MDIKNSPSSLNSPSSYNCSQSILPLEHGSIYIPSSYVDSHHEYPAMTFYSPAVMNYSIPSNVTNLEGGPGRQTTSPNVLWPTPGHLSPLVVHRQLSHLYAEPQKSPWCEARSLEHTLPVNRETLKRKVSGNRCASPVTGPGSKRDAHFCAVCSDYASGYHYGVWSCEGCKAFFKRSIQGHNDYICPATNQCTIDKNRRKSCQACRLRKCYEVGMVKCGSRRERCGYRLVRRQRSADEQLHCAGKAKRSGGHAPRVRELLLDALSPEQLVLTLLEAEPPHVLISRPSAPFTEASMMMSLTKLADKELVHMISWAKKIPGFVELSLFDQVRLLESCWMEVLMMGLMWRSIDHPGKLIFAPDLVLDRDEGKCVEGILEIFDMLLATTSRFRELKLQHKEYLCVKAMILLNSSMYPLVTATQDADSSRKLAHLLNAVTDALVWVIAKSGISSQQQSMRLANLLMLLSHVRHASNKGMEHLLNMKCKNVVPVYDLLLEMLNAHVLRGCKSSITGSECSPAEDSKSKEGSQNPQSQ
Sequence of Bcl-2-like protein 1 (Q07817 whole entry): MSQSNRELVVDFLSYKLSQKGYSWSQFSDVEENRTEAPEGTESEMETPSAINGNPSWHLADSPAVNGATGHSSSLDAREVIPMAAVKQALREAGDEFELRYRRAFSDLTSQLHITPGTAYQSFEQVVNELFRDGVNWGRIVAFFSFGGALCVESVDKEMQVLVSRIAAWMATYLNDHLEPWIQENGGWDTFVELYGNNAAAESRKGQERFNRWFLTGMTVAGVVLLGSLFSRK
Sequence of Induced myeloid leukemia cell differentiation protein Mcl-1 (Q07820 whole entry, the tested form may be a part): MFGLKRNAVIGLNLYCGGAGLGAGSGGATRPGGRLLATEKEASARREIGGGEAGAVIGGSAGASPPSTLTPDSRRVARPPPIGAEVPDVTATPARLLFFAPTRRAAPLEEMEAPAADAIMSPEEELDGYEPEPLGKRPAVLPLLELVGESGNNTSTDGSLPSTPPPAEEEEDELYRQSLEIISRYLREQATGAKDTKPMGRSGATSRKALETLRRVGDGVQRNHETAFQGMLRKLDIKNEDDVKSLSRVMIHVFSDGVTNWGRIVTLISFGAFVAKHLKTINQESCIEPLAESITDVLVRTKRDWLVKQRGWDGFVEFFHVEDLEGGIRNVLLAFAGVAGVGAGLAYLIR

Structure (SMILES): O=C(Cn1cnc2sc(-c3ccccc3)cc2c1=O)NCc1ccco1
- IC50 (Bcl-2-like protein 1): > 109 µM (not active)
- IC50 [1]: 5.16 µM (active)

Structure (SMILES): O=C(Nc1sc2c(c1C(=O)O)CCC2)c1ccccc1
- IC50 [2]: 12.1 µM (active)
- IC50 (Estrogen receptor beta [3]): 6.88 µM (active)
- IC50 (Estrogen receptor beta [4]): > 109 µM (not active)

Structure (SMILES): CSCCOC(=O)c1[nH]c2c(c1C)C(=O)CC(c1ccco1)C2 (stereo unspecified)
- IC50 (Estrogen receptor beta [3]): > 50 µM (not active)
- IC50 (Estrogen receptor): > 50 µM (not active)

Structure (SMILES): CCCn1c(O)nnc1Sc1nnnn1-c1ccccc1
- EC50 [5]: 40.1 µM (active)
- EC50 [6]: 6.75 µM (active)
- EC50 (H4): > 120 µM (not active)
- IC50 [7]: > 100 µM (active)

Structure (SMILES): COc1ccccc1N1CCN(S(=O)(=O)c2c[nH]cn2)CC1
- IC50 [8]: > 100 µM (not active)

Structure (SMILES): O=S(=O)(Nc1ccc(N2CCOCC2)cc1)c1ccccc1
- IC50 [7]: > 100 µM (active)

Structure (SMILES): CCOC(=O)c1s/c(=N\C(=O)/C=C/c2cccs2)n(C)c1C
- EC50 [6]: < 0.1 µM (inconclusive)
- EC50 (H4): 1.08 µM (active)
- EC50 [9]: 0.315 µM (active)
- EC50 [10]: > 12 µM (not active)
- EC50 [11]: 2.23 µM (active)

Structure (SMILES): O=c1[nH]cc(F)c(=O)[nH]1 [FLUOROURACIL]
- IC50 [12]: > 20 µM (inactive)
- IC50 [13]: > 20 µM (inactive)
- IC50 [14]: > 20 µM (inactive)
- IC50 [15]: > 10 µM (inactive)
- IC50 [16]: > 20 µM (inactive)
- IC50 [17]: > 20 µM (inactive)
- IC50 [18]: > 20 µM (inactive)
- IC50 [19]: > 10 µM (inactive)
